{"source": "patent US12161647B2", "about": "“Treating hearing loss” (Massachusetts Eye and Ear Infirmary, priority 2012, dated 2024)", "key": {"[1]": {"system": "inner ear spheres made from Math1-nGFP mice", "assay": "Hair cell differentiation from utricular spheres of neonatal Math1-nGFP reporter mice", "format": "cell-based, mouse", "conditions": "compared with DAPT, L-685458, MDL28170; normalized to DMSO", "description": "The utricles and cochleae of 1- to 3-d-postnatal mice of both sexes were dissected, and after careful removal of the nerve trunk and mesenchymal tissues, were trypsinized and dissociated. Dissociated cells were centrifuged, and the pellet was resuspended and filtered through a 70 μm cell strainer (BD Biosciences Discovery Labware) in DMEM/F12 medium with N2/B27 supplement, EGF (20 ng/ml), IGF1 (50 ng/ml), bFGF (10 ng/ml), and heparan sulfate (50 ng/ml) (Sigma). The single cells were cultured in nonadherent Petri dishes (Greiner Bio-One) to initiate clonal growth of spheres (49). Spheres that formed after 2-3 d in culture were passaged every 4-6 d. […]\nCell counting for spheres was performed with MetaMorph software. The cell number was determined from DAPI- or Hoechst-positive nuclei. […] For explants, inner hair cells, outer hair cells, and supporting cells in the outer hair cell region were counted on cochlear whole mounts. […] High-power images of the full-length cochlea or cochlear explant cultures were assembled and analyzed in PhotoShop CS4 (Adobe). ImageJ software (NIH) was used to measure the total length of cochlear whole mounts and the length of individual counted segments. The total number of inner hair cells, outer hair cells, and supporting cells in the outer hair cell region was counted in each of four cochlear segments of 1200-1400 μm (apical, mid-apical, mid-basal, and basal). […]"}, "Hes5 mRNA": {"system": "Hes5 mRNA", "assay": "qRT-PCR of Hes5 in deafened mature cochlea after round window administration", "format": "in vivo, mouse", "description": "4-week-old mice were exposed free-field, awake and unrestrained, in a small reverberant chamber (22). Acoustic trauma was produced by a 2 h exposure to an 8-16 kHz octave band noise presented at 116 dB SPL. The exposure stimulus was generated by a custom white-noise source, filtered (Brickwall Filter with a 60 dB/octave slope), amplified (Crown power amplifier), and delivered (JBL compression driver) through an exponential horn fitted securely to a hole in the top of a reverberant box.\n4-week-old mice weighing 12 to 16 g were used. Before surgery, the animals were anesthetized with ketamine (20 mg/kg, i.p.) and xylazine (100 mg/kg, i.p.), and an incision was made posterior to the pinna near the external meatus after local administration of lidocaine (1%). […]\nThe organs of Corti were dissected in HBSS (Invitrogen) and stored in RNAlater (Ambion) at −80° C. until further use. […] Samples were analyzed in 96 wells in triplicate by qPCR (Applied Biosystems 7900HT), and PCR thermal cycling conditions were as follows: initial denaturation at 95° C. for 2 min, denaturation at 95° C. for 15 s, annealing/extension at 60° C. for 1 min for 45 cycles. […] Relative gene expression was analyzed by using the ΔΔCT method. Gene expression was calculated relative to 18S RNA, and the amount of cDNA applied was adjusted so that the Ct value for 18S RNA was between 8 and 11. […]"}}}
{"smiles": "C[C@H](NC(=O)[C@@H](O)c1cc(F)cc(F)c1)C(=O)N[C@@H]1C(=O)N(C)c2ccccc2-c2ccccc21", "note": "[LY411575, N-2((2S)-2-(3,5-difluorophenyl)-2-hydroxyethanoyl)-N1-((7S)-5-methyl-6-oxo-6,7-dihydro-5H-dibenzo[b,d]azepin-7-yl)-l-alaninamide]", "values": [{"measurement": "potency for hair cell induction (nGFP-positive cells to DAPI-positive cells) among the four γ-secretase inhibitors", "setting": "[1]", "result": "highest potency"}, {"measurement": "noise-induced Hes5 mRNA induction", "setting": "Hes5 mRNA; round window niche, 4 mM 1 μl, 1 d after noise, at 1 d, p<0.01 vs control cochlea", "result": "completely blocked"}, {"measurement": "Hes5 expression level", "setting": "Hes5 mRNA; three days after LY411575 treatment", "result": "unchanged from the control cochlea"}]}
